In patent publication US20180245048A1, “METHODS AND COMPOSITIONS FOR EXPANSION AND DIFFERENTIATION OF SKELETAL MUSCLE STEM CELLS OR PROGENITOR CELLS” (AGENCY FOR SCIENCE, TECHNOLOGY AND RESEARCH, priority 2015, published 2018):

Assays:
[1] = system: induced pluripotent stem cell-derived myoblasts; assay: PAX7 mRNA expression in induced pluripotent stem cell-derived myoblasts; type: cell-based, human; details: 20 ng/ml bFGF, 3 μM CHIR99021, 2.5 μg/ml DLL1, alone or combined; vs untreated control (FIG. 1)
[2] = system: induced pluripotent stem cell-derived myotubes; assay: qPCR screen of myogenic differentiation markers, 70 small molecules; type: cell-based, human; details: for MyoD, MyoG and MYHC (myosin heavy chain) expression: each individually, during drug-induced myogenesis from human iPSC (FIG. 9); for expression of differentiated myocyte markers MYOG, MYHC, MYH3, MYH8 and adult myotube markers MYH7, MYH2, MYH1: screen, vs untreated control (FIG. 9)
Method: FIG. 9 is a heat map showing the levels of MYOG, MYHC, MYH3, MYH8, MYH7, MYH2, MYH1 expression in induced pluripotent stem cell-derived myotubes after screening with 70 different small molecules related to the metabolomics findings, compared to an untreated control group.
Thus carnitine to facilitate fatty acid oxidation, the fatty acids linoleate, arachidonate and palmitate to fuel fatty acid oxidation were tested. It was also tested whether statin inhibitors of steroid synthesis, such as fluvastatin, and steroids like testosterone or progesterone could boost human myotube differentiation. Against this background, a variety of other small molecule drugs and metabolites were also screened, including OxPhos inhibitors and vitamins, to test their effects on myotube differentiation. A qPCR screen was then performed for various myogenic differentiation markers on human induced pluripotent stem cell-derived myoblasts exposed to these 70 conditions (FIG. 9).

[3] = system: human induced pluripotent stem cell-derived myoblasts; assay: qPCR screen of lineage markers (OCT3/4, NCAM, AFP, PAX7), 70 small molecules; type: cell-based; details: vs untreated control (FIG. 3); for PAX7 mRNA expression: during FGF/Wnt/Notch-induced myogenesis
Method: FIG. 3 is a heat map showing the levels of OCT3/4, NCAM, AFP and PAX7 mRNA expression in induced pluripotent stem cell-derived myoblasts after screening with 70 different small molecules related to the metabolomics findings, compared to an untreated control group.
Thus, the adenylyl cyclase agonist Forskolin was tested to induce cAMP synthesis, and cobalamin was administered to see if these compounds boosted the expansion of human myoblasts. It was also tested whether glutamine, hypoxanthine and thymidine—all of which are rate-limiting for nucleotide synthesis—could boost human myoblast expansion. Against this background, a variety of other small molecule drugs and metabolites were screened, including amino acids and fatty acids, thereby testing their effects on myoblast expansion. A real-time polymerase chain reaction (qPCR) screen was then performed for various lineage markers (pluripotency marker OCT3/4, neuromuscular marker NCAM, endoderm marker AFP, muscle marker Pax7) on human induced pluripotent stem cell-derived myoblasts exposed to these 70 conditions (FIG. 3).

| Compound | MyoD, MyoG and MYHC (myosin heavy chain) expression [2] | expression of differentiated myocyte markers MYOG, MYHC, MYH3, MYH8 and adult myotube markers MYH7, MYH2, MYH1 [2] | PAX7 mRNA expression [3] | also measured |
| --- | --- | --- | --- | --- |
| Cc1cnc(-c2cnc(NCCNc3ccc(C#N)cn3)nc2-c2ccc(Cl)cc2Cl)[nH]1 [CHIR99021, 6-[[2-[[4-(2,4-dichlorophenyl)-5-(5-methyl-1H-imidazol-2-yl)-2 pyrimidinyl]amino]ethyl]amino]-3-pyridinecarbonitrile, reference compound] |  |  |  | PAX7 mRNA expression [1]: increase in PAX7 expression |
| CC(=O)OC(CC(=O)[O-])C[N+](C)(C)C (centres unmarked) [O-acetyl-carnitine] | specifically increase |  |  |  |
| C[N+](C)(C)CC(O)CC(=O)[O-] (centres unmarked) [carnitine] | specifically increase | increase expression |  |  |
| NC(=O)CC[C@H](N)C(=O)O [glutamine] |  |  | specifically increase | AFP (endoderm marker) mRNA expression [3]: without increasing; NCAM (neuromuscular marker) mRNA expression [3]: increase; OCT3/4 (pluripotency marker) mRNA expression [3]: without increasing |
| O=c1[nH]cnc2nc[nH]c12 [hypoxanthine] |  |  | specifically increase |  |
| CCCCC/C=C\C/C=C\CCCCCCCC(=O)O [linoleic acid] | specifically increase | increase expression |  |  |
| C[C@]12CC[C@H]3[C@@H](CCC4=CC(=O)CC[C@@]43C)[C@@H]1CC[C@@H]2O [testosterone, reference compound] | specifically increase | increase expression |  |  |
| Cc1cn([C@H]2C[C@H](O)[C@@H](CO)O2)c(=O)[nH]c1=O [thymidine] |  |  | specifically increase |  |
| bFGF: FGF2 (basic fibroblast growth factor), FGF signalling agonist |  |  |  | PAX7 mRNA expression [1]: increase in PAX7 expression |
| cobalamin [vitamin B12] |  |  | increase | PAX7 mRNA expression ([3]; listed as cobalamin): specifically increase; AFP (endoderm marker) mRNA expression [3]: without increasing; NCAM (neuromuscular marker) mRNA expression [3]: increase; OCT3/4 (pluripotency marker) mRNA expression [3]: without increasing |
